{
  "source": "patent US20230416329A1",
  "about": "“A PEPTIDE WITH DISULFIDE BONDS AND INHIBITORY ACTIVITY AGAINST SERINE PROTEASES, DERIVED HYBRID PEPTIDES THEREOF, AND USES THEREOF” (INSTITUTE OF MATERIA MEDICA , CHINESE ACADEMY OF MEDICAL …, priority 2020, published 2023)",
  "key": {"[1]": {"molecular_target": "T1, interaction of PCSK9-LDLR (Homo sapiens, UniProt Q8NBP7)", "T1 construct": "purchased MBL Company, Beijing, China CY-8150", "assay": "PCSK9-LDLR in vitro binding assay (inhibitory rate)", "conditions": "in vitro", "description": "Polypeptide PCSK9_1-14 (SEQ ID NOs: 210-223) is dissolved in pure water or DMSO. 85 μL reaction buffer, 5 μL 1 mM polypeptide sample and 10 μL 750 ng/mL PCSK9 protein was pre-incubated at room temperature for 20 minutes before being added to a 96 well plate. The OD450/540 nm value was measured according to the instructions of the PCSK9-LDLR in Vitro Binding Assay Kit (CY-8150, MBL Company, Beijing, China). Solvent control: replace polypeptide with 5 μL solvent. In 100 μL reaction system, the final concentration of the polypeptide and PCSK9 is 50 μM and 75 ng/mL, respectively.\nInhibition rate of polypeptide (%)=(OD450/540 nm(solvent control)−OD450/540 nm (sample))/OD450/540 nm(solvent control)×100"}, "[2]": {"tested_on": "P407-induced hyperlipidemia mice", "assay": "Subcutaneous injection of PCSK9 inhibitory peptide, serum total cholesterol in P407-induced hyperlipidemia mice", "type": "in vivo, mouse", "conditions": "for TC 15 min / TC 30 min / TC 60 min / TC 90 min: serum, subcutaneous 2 μmol/kg, mean ± sd; for TC 15 min: 15 min after administration; for TC 30 min: 30 min after administration; for TC 60 min: 60 min after administration; for TC 90 min: 90 min after administration; for serum total cholesterol (TC) level after subcutaneous injection (in words): 2 μmol/kg single s.c., P407-induced hyperlipidemia mice", "description": "The experimental peptide sample was prepared using PEG400 with a final concentration of […], and the final concentration of PEG400 is 20% (w/v). Normal ICR mice were fasted overnight with water ad libitum. The next day, all of the mice were randomly divided into model control group (Con) and polypeptide administration group (2 μmol/kg) according to body weight. Then, all of the mice were intraperitoneally injected with P407 (500 mg/kg) and fed with feed 2 hours later. Six mice were taken as a normal control group (Nor). After 24 hours, the mice in Con were subcutaneously injected with saline containing 20% PEG400, and the mice in the treatment group were given peptides. Then, the blood was taken at different time points after administration to determine the serum total cholesterol (TC) level. In consideration of the complexity of factors affecting serum LDL-C levels, especially the differences between single and long-term administration, the in vivo activity of PCSK9 inhibitory peptide is mainly observed for changes in serum TC levels."}},
  "note": "Bridge positions count the residues as written; N and C are the ends. Ends that are not written are not given here.",
  "data": [
    {"substance": "Thr-Val-Phe-Thr-Ser-Trp-Glu-Glu-Ala-Leu-Asp-Trp-Val-Gly-Phe-Cys-Thr-Tyr-Ser-Ile-Pro-Pro-Gln-Cys-Tyr-Gly (TVFTSWEEALDWVGFCTYSIPPQCYG-OH; disulfide 16-24 (inferred)) [PCSK9_2CH]", "values": [
      {"measurement": "inhibitory activity on the interaction between PCSK9 and LDLR (in words)", "setting": "[1]", "value": "good inhibitory activity on the interaction between PCSK9 and LDLR"},
      {"measurement": "inhibitory activity on the interaction between PCSK9 and LDLR (in words)", "setting": "[1]; listed as SEQ ID NO: 224", "value": "good inhibitory effects in vitro"},
      {"measurement": "TC 15 min", "setting": "[2]", "value": "2772 ± 762", "unit": "µg/mL"},
      {"measurement": "TC 30 min", "setting": "[2]", "value": "2586 ± 700", "unit": "µg/mL"},
      {"measurement": "TC 60 min", "setting": "[2]", "value": "2737 ± 762", "unit": "µg/mL"},
      {"measurement": "TC 90 min", "setting": "[2]", "value": "2489 ± 760", "unit": "µg/mL"}
    ]},
    {"substance": "Trp-Glu-Glu-Ala-Leu-Asp-Trp-Val-Cys-Gly-Arg-Ala-Thr-Lys-Ser-Ile-Pro-Pro-Ile-Cys-Phe-Gly-Thr-Val-Phe-Thr-Ser (WEEALDWVCGRATKSIPPICFGTVFTS; disulfide 9-20 (inferred)) [PCSK9_5]", "values": [
      {"measurement": "inhibitory activity on the interaction between PCSK9 and LDLR (in words)", "setting": "[1]", "value": "good inhibitory activity on the interaction between PCSK9 and LDLR"},
      {"measurement": "inhibitory activity on the interaction between PCSK9 and LDLR (in words)", "setting": "[1]; listed as SEQ ID NO: 214", "value": "good inhibitory effects in vitro"},
      {"measurement": "serum total cholesterol (TC) level after subcutaneous injection (in words)", "setting": "[2]", "value": "reduced serum TC level"},
      {"measurement": "serum total cholesterol (TC) level after subcutaneous injection (in words)", "setting": "[2]; listed as SEQ ID NO: 214", "value": "excellent lowering lipid (total cholesterol) activities in vivo"},
      {"measurement": "TC 15 min", "setting": "[2]", "value": "3050 ± 524", "unit": "µg/mL"},
      {"measurement": "TC 30 min", "setting": "[2]", "value": "3236 ± 542", "unit": "µg/mL"},
      {"measurement": "TC 60 min", "setting": "[2]", "value": "3089 ± 523", "unit": "µg/mL"},
      {"measurement": "TC 90 min", "setting": "[2]", "value": "2980 ± 591", "unit": "µg/mL"}
    ]},
    {"substance": "Trp-Glu-Glu-Ala-Leu-Asp-Trp-Val-Gly-Ile-Cys-Thr-Ala-Ser-Ile-Pro-Pro-Ile-Cys-Gln-Gly-Thr-Val-Phe-Thr-Ser (WEEALDWVGICTASIPPICQGTVFTS; disulfide 11-19 (inferred)) [PCSK9_5EC]", "values": [
      {"measurement": "inhibitory activity on the interaction between PCSK9 and LDLR (in words)", "setting": "[1]", "value": "good inhibitory activity on the interaction between PCSK9 and LDLR"},
      {"measurement": "inhibitory activity on the interaction between PCSK9 and LDLR (in words)", "setting": "[1]; listed as SEQ ID NO: 229", "value": "good inhibitory effects in vitro"},
      {"measurement": "serum total cholesterol (TC) level after subcutaneous injection (in words)", "setting": "[2]", "value": "reduced serum TC level"},
      {"measurement": "serum total cholesterol (TC) level after subcutaneous injection (in words)", "setting": "[2]; listed as SEQ ID NO: 229", "value": "excellent lowering lipid (total cholesterol) activities in vivo"},
      {"measurement": "TC 15 min", "setting": "[2]", "value": "2669 ± 520", "unit": "µg/mL"},
      {"measurement": "TC 30 min", "setting": "[2]", "value": "2231 ± 795", "unit": "µg/mL"},
      {"measurement": "TC 60 min", "setting": "[2]", "value": "2577 ± 466", "unit": "µg/mL"},
      {"measurement": "TC 90 min", "setting": "[2]", "value": "2532 ± 425", "unit": "µg/mL"}
    ]},
    {"substance": "Trp-Glu-Glu-Ala-Leu-Asp-Trp-Val-Gly-Phe-Cys-Thr-Tyr-Ser-Ile-Pro-Pro-Gln-Cys-Tyr-Gly-Thr-Val-Phe-Thr-Ser (WEEALDWVGFCTYSIPPQCYGTVFTS; disulfide 11-19 (inferred)) [PCSK9_5CH]", "values": [
      {"measurement": "inhibitory activity on the interaction between PCSK9 and LDLR (in words)", "setting": "[1]", "value": "good inhibitory activity on the interaction between PCSK9 and LDLR"},
      {"measurement": "inhibitory activity on the interaction between PCSK9 and LDLR (in words)", "setting": "[1]; listed as SEQ ID NO: 228", "value": "good inhibitory effects in vitro"},
      {"measurement": "TC 15 min", "setting": "[2]", "value": "3002 ± 716", "unit": "µg/mL"},
      {"measurement": "TC 30 min", "setting": "[2]", "value": "3067 ± 685", "unit": "µg/mL"},
      {"measurement": "TC 60 min", "setting": "[2]", "value": "3023 ± 1035", "unit": "µg/mL"},
      {"measurement": "TC 90 min", "setting": "[2]", "value": "2705 ± 741", "unit": "µg/mL"}
    ]}
  ]
}
